Assay results: the supplement of paper PMC10307832

Legend:
Test in all cases: relative viability (nuclei count vs DMSO), 5 days (fraction); higher = more cells survive
[1] = compound: Cc1ccc2nc(NCCN)c3ncc(C)n3c2c1 + CC(C)C[C@H](NC(=O)[C@H](Cc1ccccc1)NC(=O)c1cnccn1)B(O)O [Bortezomib] (partner 0.002 µM)
Outline: (§1)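 Lung cancer cell lines, seeded in 1536-well plates, were treated the following day by pin tool with a single drug or with five library-drug doses (not always all listed) in √10 steps on top of a fixed anchor-drug dose. Cells were fixed and nuclei stained in one step after 5 days, and nuclei were counted. Relative viability is the nuclei count for treated wells divided by that for vehicle wells, reported as medians of duplicate plates.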

[2] = compound: Cc1ccc2nc(NCCN)c3ncc(C)n3c2c1 + O=C(CCCCCCC(=O)Nc1ccccc1)NO [Vorinostat] (partner 1 µM)
Outline: as §1

Salubrinal + Phenformin = compound: O=C(/C=C/c1ccccc1)NC(NC(=S)Nc1cccc2cccnc12)C(Cl)(Cl)Cl [Salubrinal] + N=C(N)NC(=N)NCCc1ccccc1 [Phenformin] (partner 250 µM)
Outline: as §1

Salubrinal + AZD7762 = compound: O=C(/C=C/c1ccccc1)NC(NC(=S)Nc1cccc2cccnc12)C(Cl)(Cl)Cl [Salubrinal] + NC(=O)Nc1cc(-c2cccc(F)c2)sc1C(=O)N[C@H]1CCCNC1 [AZD7762] (partner 0.2 µM)
Outline: as §1

Row | Cell Line | relative viability ([1]; first compound 0.04 µM) | relative viability ([1]; first compound 0.1265 µM) | relative viability ([1]; first compound 0.4 µM) | relative viability ([1]; first compound 1.265 µM) | relative viability ([1]; first compound 4 µM) | relative viability ([2]; first compound 0.04 µM) | relative viability ([2]; first compound 0.1265 µM) | relative viability ([2]; first compound 0.4 µM) | relative viability ([2]; first compound 1.265 µM) | relative viability ([2]; first compound 4 µM) | relative viability (Salubrinal + Phenformin; first compound 0.08 µM) | relative viability (Salubrinal + Phenformin; first compound 0.253 µM) | relative viability (Salubrinal + Phenformin; first compound 0.8 µM) | relative viability (Salubrinal + Phenformin; first compound 2.53 µM) | relative viability (Salubrinal + Phenformin; first compound 8 µM) | relative viability (Salubrinal + AZD7762; first compound 0.08 µM) | relative viability (Salubrinal + AZD7762; first compound 0.253 µM) | relative viability (Salubrinal + AZD7762; first compound 0.8 µM) | relative viability (Salubrinal + AZD7762; first compound 2.53 µM) | relative viability (Salubrinal + AZD7762; first compound 8 µM)
1 | HOP-62 | 1.02 | 0.692 | 0.613 | 0.86 | 0.432 | 0.647 | 0.752 | 0.401 | 0.602 | 0.663 | 0.85 | 0.491 | 0.799 | 0.702 | 0.53 | 0.589 | 0.468 | 0.958 | 0.689 | 0.441
2 | CAL-12T | 1.03 | 0.889 | 0.9 | 0.978 | 0.776 | 0.77 | 0.711 | 0.882 | 0.65 | 0.629 | 0.627 | 0.485 | 0.613 | 0.578 | 0.438 | 0.625 | 0.657 | 0.741 | 0.577 | 0.619
3 | NCI-H1755 | 1.02 | 0.99 | 0.897 | 0.956 | 1.02 | 0.806 | 0.899 | 0.728 | 0.696 | 0.857 | 0.639 | 0.676 | 0.652 | 0.625 | 0.552 | 0.668 | 0.406 | 0.517 | 0.41 | 0.584
